Several values for one entry are separate records, joined by “and”; a condition that tells them apart may be missing. Identical values can stand only once.
Legend:
[1] = target: T1, splenic Amyloid A fibrils (Mus musculus, UniProt P05367); test: Acute AEF-AgNO3-induced amyloidosis mouse model (secondary amyloidosis); format: in vivo, mice; conditions: for % PC (splenic AA fibrils, % of positive control): 5 days; for Activity (in vivo, secondary amyloidosis): overall grade over the concentrations tested
T1 construct: from tissue; host or cells: spleen of CBA/J mice (AEF/AgNO3-induced amyloidosis)
T1 sequence (P05367 20-95 limits assumed): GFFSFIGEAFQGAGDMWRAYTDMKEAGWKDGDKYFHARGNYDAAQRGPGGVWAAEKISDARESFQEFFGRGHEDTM
Description: The in vivo screening is based on the acute AEF-AgNO3-induced amyloidosis mouse model. The test is conducted on a total of 6 days and each compound administered in the drinking solution for a 5-day period.
Female mice of CBA/J strain are individually identified, weighed and assigned to a group of 5 animals following an acclimation period. The amyloidosis is induced by intravenous injection of 100 μg of AEF (amyloid enhancing factor) concomitantly with a subcutaneous injection of 0.5 ml of 2% of a solution of AgNO3. Animals in the negative control group are injected with saline only.
Twenty-four hours following the amyloidosis induction, the compound is added to a 1% solution of sucrose (vehicle) and distributed to animals in drinking bottles for a period of 5 days. Animals in the positive control group receive the vehicle only. Drinking solutions are made available ad libitum to each group of animals and the volume measured before and after use to calculate the consumption of each solution. Blood samples are collected for in vitro determination of plasma serum amyloid A levels.
On day 6, mice are sacrificed, weighed and organs such as spleen are existed and fixed in acid alcohol. Spleen samples are processed, embedded in paraffin wax and cut inyo sections. Spleen sections from each animal are stained with the Congo Red staining solution and the splenic Amyloid A fibrils aggregation evaluated by image analysis. Results are expressed as % of AA fibrils deposited in the splenic perifollicular area. Raw data is analyzed.
Mean of mouse body weight and the mean consumption of the drinking solution (ml) are compiled. Variation of the body weight before the induction and at the end of the assay is calculated (%). The dose level of the compound consumed (mg/kg/day) is calculated as well.
P-values for Student t-test and Mann-Whitney tests comparing a group to the positive control are calculated using GraphPad Prism computer software. The mean of the image analysis reading of spleen serious for a group is expressed as percentage of the mean of the image analysis readings for the positive control group (% PC).

[2] = target: T2, Aβ(1-40) (Homo sapiens, UniProt P05067); test: Circular dichroism analysis, pre-incubation assay, β-sheet at 218 nm; format: biochemical; conditions: CD 218 nm, 0.02M Tris pH 7.4
T2 construct: Prepare a fresh 40 μm solution of Aβ(1-40) in 0.02M Tris, pH 7.4; made in house; host or cells: chemical synthesis (FMOC), HPLC purified
Description: The assay is conducted as follows:
Instrument: JASCO J-715 Spectropolarimeter.
Cell/cuvette: Hellma quartz (QS) with 1.0 mm pathlength Room temperature. Wavelength interval: 250 nm-190 nm.
Band width: 1.0 nm Response time: 1 sec Scanning speed: 20 nm/min Number of accumulations/spectrum: 5
1. Prepare a fresh 40 μm solution of Aβ(1-40) in 0.02M Tris, pH 7.4.
2. Prepare a 1 mM solution of test compounds in 0.02M Tris, pH 7.4.
3. Combine equal volumes of the Aβ(1-40) and test compound solutions.
4. Incubate the mixtures for 19 h.
5. Take the CD spectrum using the parameters above.
6. Return the mixtures to the incubator and incubate to 43 h.
7. Take the CD spectrum using the parameters above. • Inhibition of Aβ40 assembly/aggregation is determined by comparing the amount of b-sheet structure) appearing at lambda=218 nm) obtained in control and in treated sample at each timepoint.

[3] = target: T3, IAPP (Homo sapiens, UniProt P10997); test: Thioflavine T spectroscopy, rate of amyloid fibril formation; format: biochemical; conditions: ThT 62.5 μM; excitation 440 nm, emission 482 nm
T3 sequence (P10997 34-70 limits assumed): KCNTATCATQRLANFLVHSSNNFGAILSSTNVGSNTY
Description: Detection of ThT fluorescence can be used as a sensitive assay for amyloid fibril formation under different conditions. This assay has been used in experiments to determine the effects of compounds of the invention on amyloid fibril formation.
Human IAPP was dissolved in 40% trifluoroethanol and freeze-dried into conveniently-sized aliquots. IAPP was prepared immediately before the measurements by dissolving in 40% 1,1,1,3,3,3-hexafluoro-2-propanol (HFIP) in water to maintain the peptide in alpha helical conformation and soluble. A stock solution of ThT (2.5 mM) was prepared, 7.9 mg in 10 mL Tris-HCl pH 7.0 and filtered (0.22 μm). Solutions were kept in the dark until use. Fluorescence was examined at 440 nm excitation (slit 5 nm), and emission at 482 nm (slit 10 nm) with stirring. […] of ThT stock (final concentration 62.5 μM) was added to peptide sample and made up to 1 mL in the cuvette. The sample was stirred for 5 min. before taking a reading. Measurements were made at an initial time point (5 min. from sample preparation), at intervals over the next 4-6 h and after overnight incubation at room temperature.

[4] = target: T3, IAPP; test: Circular dichroism analysis of IAPP-associated fibril formation (Example 7); format: biochemical; parameters: add 10 μL of 10 mg/mL IAPP stock solution (final 100 ng peptide)
Description: Circular dichroism analysis was conducted to confirm the activity of certain therapeutic compounds in preventing or inhibiting IAPP-associated fibril formation in accordance with the present disclosure by determining the presence or absence of […] conformation.
Instrument: JASCO J-715 Spectropolarimeter
Cell cuvette: Hellma quartz (QS) with 1.0 mm pathlength
Wavelength interval: 250 nm-190 nm
Scanning speed: 20 nm/min
The assay, a co-incubation procedure, examines the ability of a compound or substance to inhibit the assembly of amyloid fibrils, e.g., to test for the presence of the amyloidotic β-sheet conformation in the presence of soluble IAPP. Samples are run in the presence and absence (i.e., water alone) of buffering agent, which is done to determine if competitive effects are seen with the ionic buffer (usually phosphate).
Add components used at a molar ratio of 1:10 [ peptide:compound]; add 10 μL of 10 mg/mL IAPP stock solution (final […] peptide) to the aqueous solution containing compound to a final volume of 400 μL. The pH of the final assay solution is measured to ensure there is no fluctuation and the spectrum is accumulated using the parameters as shown above.
Add desired amount of compound to achieve a 1:10 molar ratio in 10 mM phosphate buffer, pH 7. Add 10 μL of 10 mg/mL IAPP stock solution (final peptide 100 μg) to the phosphate buffered solution containing the compound and bring to a final volume of 400 μL. The pH of the final assay solution is measured to ensure there is no fluctuation and the spectrum is accumulated using the parameters as shown above.
In both assays, a control sample is run with each test group. This control contains peptide only in water or buffer at a similar final volume of 400 μl. Spectra for the control are collected initially (first run) and at the end of the test (final run) to ensure that the peptide has not undergone extensive aggregation during the course of the assay. Spectra for the controls are used to compare with the measurements obtained with the treated samples.
Make fresh 1 mg/mL stock solution of IAPP in 10 mM phosphate buffer, pH 7. Add desired amount of compound to achieve a 1:10 molar ratio in 10 mM phosphate buffer, pH 7. Incubate for 3 days at room temperature. Make up to final volume of 400 μL with 10 mM phosphate buffer, pH 7. The pH of the final assay solution is measured to ensure there is no fluctuation and the spectrum is accumulated using the parameters as shown above.
A similar control is run for comparative purposes.
Plots of the spectra (control and treated) are individually assembled and the changes in ellipticity at 218 nm are examined. This minimum is directly correlated with the amount of β-sheet present in the sample. Changes in either a positive or negative direction are noted and a relative value (“active” or “not active”) assigned to the compound as a measure of activity. In a subsequent experiment with the compounds at a molar ratio of 1:5 [ peptide:compound], the degree of randomness was noted, an indication of the ability of the compounds to prevent amyloid aggregation. A more positive number indicates less β-sheet formation. The ability of a compound to prevent β-sheet formation for at least 24 h is important, as the non-aggregated amyloid fibrils will be excreted in the soluble form. In the control noted below, the decrease in CD (mdegs) may indicate that some of the peptide is aggregating under these conditions.

[5] = 6.25 mg/ml in drinking solution
[6] = 12.5 mg/ml in drinking solution
[7] = 25.0 mg/ml in drinking solution
[8] = molar ratio 1:5 peptide:compound, 24 h
[9] = molar ratio 1:5 peptide:compound
[10] = molar ratio 1:5 peptide:compound, more positive = less β-sheet

T2 sequence (P05067 672-711 limits assumed): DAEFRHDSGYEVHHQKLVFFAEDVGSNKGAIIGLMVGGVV

| % PC (splenic AA fibrils, % of positive control) [1, 5] | % PC (splenic AA fibrils, % of positive control) [1, 6] | Activity (in vivo, secondary amyloidosis) [1] | relative inhibition compared to Aβ alone, incubation time 0 h [2] | relative inhibition compared to Aβ alone, incubation time 19 h [2] | relative inhibition compared to Aβ alone, incubation time 43 h [2] | Compound | further results |
| --- | --- | --- | --- | --- | --- | --- | --- |
| 87 % PC | 76 % PC and 68 % PC | Moderate | – | – | – | COc1cc2c(cc1OC)CN(CCCS(=O)(=O)O)CC2 [I, 3-[2-(6,7-dimethoxy-1,2,3,4-tetrahydroisoquinolinyl)]-1-propanesulfonic acid] | % PC (splenic AA fibrils, % of positive control) [1, 7]: 69% PC |
| 87% PC | 54 % PC and 67 % PC and 56 % PC | Moderate | — (No effect compared to Aβ alone) | + (+: 0-25%) | ++ (++: 25-50%) | O=S(=O)(O)CCCN1CCCc2ccccc21 [III, 3-[1-(1,2,3,4-tetrahydroquinolinyl)]-1-propanesulfonic acid] | % PC (splenic AA fibrils, % of positive control) ([1]; 3.5 mg/ml in drinking solution): 113% PC; % PC (splenic AA fibrils, % of positive control) [1, 7]: 82 % PC and 77 % PC |
| 74 % PC and 40 % PC | 64 % PC and 38 % PC | Active | + (+: 0-25%) | +++ (+++: 50-75%) | ++ (++: 25-50%) | COc1ccc2c(c1)CCN(CCCS(=O)(=O)O)C2 [IX, 3-[2-(6-methoxy-1,2,3,4-tetrahydroisoquinolinyl)]-1-propanesulfonic acid] | – |
| – | – | – | – | – | – | Cl.c1ccc2c(c1)CCNC2 [LVIX, 1,2,3,4-tetrahydroisoquinoline, hydrochloride] | IAPP-associated fibril assembly (ThT fluorescence) [3]: inhibit or prevent IAPP-associated fibril assembly; Conformation at 24 h [4, 8]: β; CD at 24 h ([4]; molar ratio 1:5 peptide:compound, 24 h, more positive = less β-sheet): (−1.5) mdegs; Conformation at 48 h [4, 9]: β; CD at 48 h [4, 10]: −1.3 mdegs; Conformation at T0 [4, 9]: Random; Activity (change in ellipticity at 218 nm) ([4]; molar ratio 1:10 peptide:compound): Active |
| – | – | – | – | – | – | O=S(=O)(O)CCCNCCCO [LVX, 3-(3-hydroxy-1-propyl)amino-1-propanesulfonic acid] | IAPP-associated fibril assembly (ThT fluorescence) [3]: inhibit or prevent IAPP-associated fibril assembly; Conformation at 24 h [4, 8]: Random; Conformation at 48 h [4, 9]: β; CD at 48 h [4, 10]: −1.7 mdegs; Conformation at T0 [4, 9]: Random |
| – | – | – | — (No effect compared to Aβ alone) | ++++ (++++: 75-100%) | — (No effect compared to Aβ alone) | N[C@@H](Cc1cccc(CS(=O)(=O)O)c1)C(=O)O [LVXIII, 3-Sulfomethyl-L-phenylalanine] | – |
| 94 % PC and 91 % PC | 83% PC | Moderate | + (+: 0-25%) | ++ (++: 25-50%) | ++ (++: 25-50%) | O=S(=O)(O)CCCN1CCc2ccccc21 [VII, 3-(1-indolinyl)-1-propanesulfonic acid] | % PC (splenic AA fibrils, % of positive control) [1, 7]: 71 % PC and 97 % PC |
| – | – | – | + (+: 0-25%) | ++++ (++++: 75-100%) | +++ (+++: 50-75%) | CC(=O)NCCCS(=O)(=O)O [VIII, 3-acetylamino-1-propanesulfonic acid] | – |
| – | – | – | + (+: 0-25%) | ++ (++: 25-50%) | ++ (++: 25-50%) | O=C(NCCCS(=O)(=O)O)c1ccccc1 [X, 3-benzoylamino-1-propanesulfonic acid] | – |
| 94% PC | 69% PC | Moderate | – | – | – | O=C[C@H](NCCCS(=O)(=O)O)[C@@H](O)[C@H](O)[C@H](O)CO [XX, 2-deoxy-2-(3-sulfopropyl)amino-d-glucose] | – |

| Compound | % PC (splenic AA fibrils, % of positive control) [1, 5] | % PC (splenic AA fibrils, % of positive control) [1, 6] | Activity (in vivo, secondary amyloidosis) [1] | relative inhibition compared to Aβ alone, incubation time 0 h [2] | relative inhibition compared to Aβ alone, incubation time 19 h [2] | relative inhibition compared to Aβ alone, incubation time 43 h [2] | further results |
| --- | --- | --- | --- | --- | --- | --- | --- |
| O=S(=O)(O)CCCN1CCC2=C(CCCC2)C1 [XVIII, 3-[2-(1,2,3,4,5,6,7,8-octahydroisoquinolinyl)]-1-propanesulfonic acid] | 86% PC | – | Moderate | – | – | – | % PC (splenic AA fibrils, % of positive control) ([1]; 3.13 mg/ml in drinking solution): 74% PC |

Source: US20110281951A1, “Compositions and methods for treating amyloidosis” (priority 1999, published 2011)
